Laboratory results taken from patent US20250179103A1, “6-OXODECAHYDROPYRROLO[1,2-A][1,5]DIAZOCINE AND 6-OXODECAHYDRO-4H-PYRROLO[2,1-D][1,5]THIAZOCINE DERIVATIVES AS STAT3 AND STAT6 MODULATORS FOR THE TREATMENT OF CANCER AND INFLAMMATORY CONDITIONS” (Recludix Pharma, Inc., priority 2022, published 2025).

Tests used:
[1] = molecular target: T1, Recombinant STAT6 protein (STAT6(W123-T658)) (Homo sapiens, UniProt P42226); assay: STAT6 Fluorescence Polarization (FP) Assay; format: binding; settings: STAT6(W123-T658) 250 nM, probe 5-FAM-ApYKPFQDLI-NH2 2 nM, 45-minute incubation
T1 construct: Recombinant STAT6 protein (STAT6(W123-T658))
T1 sequence (P42226 123-658): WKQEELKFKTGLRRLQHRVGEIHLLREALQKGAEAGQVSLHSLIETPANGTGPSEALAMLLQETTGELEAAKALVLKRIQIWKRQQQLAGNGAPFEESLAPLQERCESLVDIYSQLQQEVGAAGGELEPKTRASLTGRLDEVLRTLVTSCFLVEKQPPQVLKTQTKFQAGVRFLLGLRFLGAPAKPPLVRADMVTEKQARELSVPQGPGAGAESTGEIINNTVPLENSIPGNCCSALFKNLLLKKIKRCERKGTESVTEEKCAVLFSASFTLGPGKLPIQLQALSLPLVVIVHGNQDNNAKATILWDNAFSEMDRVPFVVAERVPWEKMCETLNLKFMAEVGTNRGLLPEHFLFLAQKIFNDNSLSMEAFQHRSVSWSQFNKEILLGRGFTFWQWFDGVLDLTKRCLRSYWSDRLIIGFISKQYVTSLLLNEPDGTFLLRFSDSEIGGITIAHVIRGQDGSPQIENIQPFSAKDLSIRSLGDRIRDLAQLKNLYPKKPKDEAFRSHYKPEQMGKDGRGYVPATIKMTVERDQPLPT
Procedure, shortened: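 Displacement of a fluorescent phosphotyrosine peptide (5-FAM-ApYKPFQDLI-NH2, 2 nM) from STAT6(W123-T658) (250 nM), 1% DMSO, pH 7.4 HEPES buffer. After 45 min at room temperature, polarization (mP) was plotted versus log compound concentration and fitted by nonlinear regression to give IC50.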

[2] = molecular target: T2, Recombinant STAT3 protein (STAT3(G127-I722)) (Homo sapiens, UniProt P40763); assay: STAT3 Fluorescence Polarization (FP) Assay; format: binding; settings: STAT3(G127-I722) 25 nM, probe 5-FAM-GpYLPQTV-NH2 2 nM, 45-minute incubation
T2 construct: Recombinant STAT3 protein (STAT3(G127-I722))
Procedure, shortened: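 Fluorescence polarization after a 45-min room-temperature incubation measured compound displacement of a 2 nM fluorescein-labelled phosphotyrosine peptide (5-FAM-GpYLPQTV-NH2) from 25 nM recombinant STAT3(G127-I722). Buffer was 10 mM HEPES pH 7.4 with 1% DMSO final. IC50s were fitted by nonlinear regression of mP against log concentration.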

T2 sequence (P40763 127-722): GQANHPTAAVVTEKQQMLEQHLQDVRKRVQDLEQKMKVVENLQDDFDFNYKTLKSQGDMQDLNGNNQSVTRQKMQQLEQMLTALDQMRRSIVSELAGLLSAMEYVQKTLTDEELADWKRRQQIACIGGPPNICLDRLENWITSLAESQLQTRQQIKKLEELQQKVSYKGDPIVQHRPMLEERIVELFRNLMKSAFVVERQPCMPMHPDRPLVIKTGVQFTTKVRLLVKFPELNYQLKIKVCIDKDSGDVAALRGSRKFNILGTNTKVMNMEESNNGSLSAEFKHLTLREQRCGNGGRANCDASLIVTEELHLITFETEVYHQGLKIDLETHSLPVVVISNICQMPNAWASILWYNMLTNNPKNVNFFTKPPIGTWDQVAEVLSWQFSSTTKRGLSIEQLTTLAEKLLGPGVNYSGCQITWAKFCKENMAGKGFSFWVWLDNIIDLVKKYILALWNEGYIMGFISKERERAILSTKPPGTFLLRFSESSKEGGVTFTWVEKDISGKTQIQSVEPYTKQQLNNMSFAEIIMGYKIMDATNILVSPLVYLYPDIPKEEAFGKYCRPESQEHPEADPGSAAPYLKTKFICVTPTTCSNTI

IC50 [1] [nM]	IC50 [2] [nM]	Structure (SMILES)
300 to 3000	1000 to 10000	CC(=O)N1CC[C@H]2CC[C@@H](C(=O)Nc3ccc4nccn4c3)N2C(=O)[C@@H](NC(=O)c2cc3cc(C(F)(F)P(=O)(O)O)ccc3s2)C1 [Compound 72, ((2-(((5S,8S,10aR)-3-acetyl-8-(imidazo[1,2-a]pyridin-6-ylcarbamoyl)-6-oxodecahydropyrrolo[1,2-a][1,5]diazocin-5-yl)carbamoyl)benzo[b]thiophen-5-yl)difluoromethyl)phosphonic acid]
300 to 3000	100 to 1000	CC(=O)N1CC[C@H]2CC[C@@H](C(=O)N3CCC(N4CCCS4(=O)=O)C3)N2C(=O)[C@@H](NC(=O)c2cc3cc(C(F)(F)P(=O)(O)O)ccc3s2)C1 (stereo partly drawn) [Compound 78, ((2-(((5S,8S,10aR)-3-acetyl-8-(3-(1,1-dioxidoisothiazolidin-2-yl)pyrrolidine-1-carbonyl)-6-oxodecahydropyrrolo[1,2-a][1,5]diazocin-5-yl)carbamoyl)benzo[b]thiophen-5-yl)difluoromethyl)phosphonic acid]
300 to 3000	100 to 1000	CC(=O)N1CC[C@H]2CC[C@@H](C(=O)N3CC4CCS(=O)(=O)CC4C3)N2C(=O)[C@@H](NC(=O)c2cc3cc(C(F)(F)P(=O)(O)O)ccc3s2)C1 (stereo partly drawn) [Compound 80, ((2-(((5S,8S,10aR)-3-acetyl-8-(5,5-dioxidooctahydrothiopyrano[3,4-c]pyrrole-2-carbonyl)-6-oxodecahydropyrrolo[1,2-a][1,5]diazocin-5-yl)carbamoyl)benzo[b]thiophen-5-yl)difluoromethyl)phosphonic acid]
300 to 3000	100 to 1000	CC(=O)N1CC[C@H]2CC[C@@H](C(=O)N3CCC(c4cnc5n4CCCC5)C3)N2C(=O)[C@@H](NC(=O)c2cc3cc(C(F)(F)P(=O)(O)O)ccc3s2)C1 (stereo partly drawn) [Compound 81, ((2-(((5S,8S,10aR)-3-acetyl-6-oxo-8-(3-(5,6,7,8-tetrahydroimidazo[1,2-a]pyridin-3-yl)pyrrolidine-1-carbonyl)decahydropyrrolo[1,2-a][1,5]diazocin-5-yl)carbamoyl)benzo[b]thiophen-5-yl)difluoromethyl)phosphonic acid]
300 to 3000	100 to 1000	CC(=O)Nc1ccn(C2CCN(C(=O)[C@@H]3CC[C@@H]4CCN(C(C)=O)C[C@H](NC(=O)c5cc6cc(C(F)(F)P(=O)(O)O)ccc6s5)C(=O)N43)C2)n1 (stereo partly drawn) [Compound 84, ((2-(((5S,8S,10aR)-8-(3-(3-acetamido-1H-pyrazol-1-yl)pyrrolidine-1-carbonyl)-3-acetyl-6-oxodecahydropyrrolo[1,2-a][1,5]diazocin-5-yl)carbamoyl)benzo[b]thiophen-5-yl)difluoromethyl)phosphonic acid]
300 to 3000	1000 to 10000	CC(=O)N1CC[C@H]2CC[C@@H](C(=O)N3CCC(N(Cc4noc(C5CC5)n4)C(C)=O)C3)N2C(=O)[C@@H](NC(=O)c2cc3cc(C(F)(F)P(=O)(O)O)ccc3s2)C1 (stereo partly drawn) [Compound 85, ((2-(((5S,8S,10aR)-3-acetyl-8-(3-(N-((5-cyclopropyl-1,2,4-oxadiazol-3-yl)methyl)acetamido)pyrrolidine-1-carbonyl)-6-oxodecahydropyrrolo[1,2-a][1,5]diazocin-5-yl)carbamoyl)benzo[b]thiophen-5-yl)difluoromethyl)phosphonic acid]
300 to 3000	≤ 100	CC(=O)N1CC[C@H]2CC[C@@H](C(=O)N3Cc4cnn(-c5ccccc5)c4C3)N2C(=O)[C@@H](NC(=O)c2cc3cc(C(F)(F)P(=O)(O)O)ccc3s2)C1 [Compound 86, ((2-(((5S,8S,10aR)-3-acetyl-6-oxo-8-(1-phenyl-1,4,5,6-tetrahydropyrrolo[3,4-c]pyrazole-5-carbonyl)decahydropyrrolo[1,2-a][1,5]diazocin-5-yl)carbamoyl)benzo[b]thiophen-5-yl)difluoromethyl)phosphonic acid]
300 to 3000	1000 to 10000	CC(=O)N1CC[C@H]2CC[C@@H](C(=O)N3Cc4cnn(-c5ncccn5)c4C3)N2C(=O)[C@@H](NC(=O)c2cc3cc(C(F)(F)P(=O)(O)O)ccc3s2)C1 [Compound 87, ((2-(((5S,8S,10aR)-3-acetyl-6-oxo-8-(1-(pyrimidin-2-yl)-1,4,5,6-tetrahydropyrrolo[3,4-c]pyrazole-5-carbonyl)decahydropyrrolo[1,2-a][1,5]diazocin-5-yl)carbamoyl)benzo[b]thiophen-5-yl)difluoromethyl)phosphonic acid]

The remaining lines, values behind:

Structure (SMILES)	IC50 [1] [nM]	IC50 [2] [nM]
CC(=O)N1CC[C@H]2CC[C@@H](C(=O)Nc3ccc(=O)n(C)c3)N2C(=O)[C@@H](NC(=O)c2cc3cc(C(F)(F)P(=O)(O)O)ccc3s2)C1 [Compound 71, ((2-(((5S,8S,10aR)-3-acetyl-8-((1-methyl-6-oxo-1,6-dihydropyridin-3-yl)carbamoyl)-6-oxodecahydropyrrolo[1,2-a][1,5]diazocin-5-yl)carbamoyl)benzo[b]thiophen-5-yl)difluoromethyl)phosphonic acid]	300 to 3000	1000 to 10000
CC(=O)N1CC[C@H]2CC[C@@H](C(=O)Nc3ccc(OCCCN(C)C)cc3)N2C(=O)[C@@H](NC(=O)c2cc3cc(C(F)(F)P(=O)(O)O)ccc3s2)C1 [Compound 73, ((2-(((5S,8S,10aR)-3-acetyl-8-((4-(3-(dimethylamino)propoxy)phenyl)carbamoyl)-6-oxodecahydropyrrolo[1,2-a][1,5]diazocin-5-yl)carbamoyl)benzo[b]thiophen-5-yl)difluoromethyl)phosphonic acid]	3000 to 30000	1000 to 10000
CC(=O)N1CC[C@H]2CC[C@@H](C(=O)Nc3ccc(OCCN(C)C)cc3)N2C(=O)[C@@H](NC(=O)c2cc3cc(C(F)(F)P(=O)(O)O)ccc3s2)C1 [Compound 75, ((2-(((5S,8S,10aR)-3-acetyl-8-((4-(2-(dimethylamino)ethoxy)phenyl)carbamoyl)-6-oxodecahydropyrrolo[1,2-a][1,5]diazocin-5-yl)carbamoyl)benzo[b]thiophen-5-yl)difluoromethyl)phosphonic acid]	3000 to 30000	1000 to 10000
CC(=O)N1CC[C@H]2CC[C@@H](C(=O)N3CCC4(C3)C(=O)Nc3ccccc34)N2C(=O)[C@@H](NC(=O)c2cc3cc(C(F)(F)P(=O)(O)O)ccc3s2)C1 (stereo partly drawn) [Compound 76, ((2-(((5S,8S,10aR)-3-acetyl-6-oxo-8-(2-oxospiro[indoline-3,3′-pyrrolidine]-1′-carbonyl)decahydropyrrolo[1,2-a][1,5]diazocin-5-yl)carbamoyl)benzo[b]thiophen-5-yl)difluoromethyl)phosphonic acid]	300 to 3000	100 to 1000
CC(=O)N1CC[C@H]2CC[C@@H](C(=O)N3CC(C(=O)N4CCOCC4)C3)N2C(=O)[C@@H](NC(=O)c2cc3cc(C(F)(F)P(=O)(O)O)ccc3s2)C1 [Compound 77, ((2-(((5S,8S,10aR)-3-acetyl-8-(3-(morpholine-4-carbonyl)azetidine-1-carbonyl)-6-oxodecahydropyrrolo[1,2-a][1,5]diazocin-5-yl)carbamoyl)benzo[b]thiophen-5-yl)difluoromethyl)phosphonic acid]	3000 to 30000	100 to 1000
CC(=O)N1CC[C@H]2CC[C@@H](C(=O)N3C[C@@H]4[C@H](C3)[C@H]3CS(=O)(=O)C[C@@H]43)N2C(=O)[C@@H](NC(=O)c2cc3cc(C(F)(F)P(=O)(O)O)ccc3s2)C1 [Compound 79, ((2-(((5S,8S,10aR)-3-acetyl-8-((3aR,3bS,6aR,6bS)-2,2-dioxidooctahydro-1H-thieno[3′,4′:3,4]cyclobuta[1,2-c]pyrrole-5-carbonyl)-6-oxodecahydropyrrolo[1,2-a][1,5]diazocin-5-yl)carbamoyl)benzo[b]thiophen-5-yl)difluoromethyl)phosphonic acid]	300 to 3000	100 to 1000
CC(=O)N1CC[C@H]2CC[C@@H](C(=O)N3CCC(OCc4cncs4)C3)N2C(=O)[C@@H](NC(=O)c2cc3cc(C(F)(F)P(=O)(O)O)ccc3s2)C1 (stereo partly drawn) [Compound 82, ((2-(((5S,8S,10aR)-3-acetyl-6-oxo-8-(3-(thiazol-5-ylmethoxy)pyrrolidine-1-carbonyl)decahydropyrrolo[1,2-a][1,5]diazocin-5-yl)carbamoyl)benzo[b]thiophen-5-yl)difluoromethyl)phosphonic acid]	300 to 3000	1000 to 10000
COC1CCN(C2CCN(C(=O)[C@@H]3CC[C@@H]4CCN(C(C)=O)C[C@H](NC(=O)c5cc6cc(C(F)(F)P(=O)(O)O)ccc6s5)C(=O)N43)C2)CC1 (stereo partly drawn) [Compound 83, ((2-(((5S,8S,10aR)-3-acetyl-8-(3-(4-methoxypiperidin-1-yl)pyrrolidine-1-carbonyl)-6-oxodecahydropyrrolo[1,2-a][1,5]diazocin-5-yl)carbamoyl)benzo[b]thiophen-5-yl)difluoromethyl)phosphonic acid]	3000 to 30000	1000 to 10000
